Values quoted from earlier work, collected in patent US20090318548A1, “PARA-QUINOL DERIVATIVES AND METHODS OF STEREO SELECTIVELY SYNTHESIZING AND USING SAME” (UNIVERSITY OF NORTHERN BRITISH COLUMBIA, priority 2006, published 2009).

What was measured:
[1] = biological target: POLO-like kinase 1 (Plk1) enzyme (Homo sapiens, UniProt P53350)
Bacillus subtilis YycG = Bacillus subtilis YycG (Bacillus subtilis, UniProt Q45614); settings: for inhibition of Bacillus subtilis YycG (comparative experiments): established antibiotics as comparators
[2] = biological target: T1, YycG from Staphylococcus aureus (Staphylococcus aureus, UniProt Q2G2U4); settings: read-out: IC50, inhibition of YycG
T1 sequence (Q2G2U4 1-608): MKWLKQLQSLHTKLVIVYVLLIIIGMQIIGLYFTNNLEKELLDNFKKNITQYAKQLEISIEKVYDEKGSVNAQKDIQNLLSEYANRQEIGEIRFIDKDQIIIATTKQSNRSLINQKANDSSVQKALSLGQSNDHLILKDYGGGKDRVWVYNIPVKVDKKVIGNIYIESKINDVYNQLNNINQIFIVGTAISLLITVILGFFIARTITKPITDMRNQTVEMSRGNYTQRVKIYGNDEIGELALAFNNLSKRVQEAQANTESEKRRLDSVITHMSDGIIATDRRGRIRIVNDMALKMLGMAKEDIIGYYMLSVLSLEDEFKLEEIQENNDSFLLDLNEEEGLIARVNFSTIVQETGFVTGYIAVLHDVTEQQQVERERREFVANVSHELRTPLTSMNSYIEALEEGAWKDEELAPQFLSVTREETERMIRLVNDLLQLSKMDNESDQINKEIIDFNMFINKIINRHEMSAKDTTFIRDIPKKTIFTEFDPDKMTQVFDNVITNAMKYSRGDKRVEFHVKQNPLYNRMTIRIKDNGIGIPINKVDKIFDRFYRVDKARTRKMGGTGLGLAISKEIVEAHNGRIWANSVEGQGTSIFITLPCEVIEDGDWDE

Bacillus subtilis YycG, sequence (Q45614 whole entry): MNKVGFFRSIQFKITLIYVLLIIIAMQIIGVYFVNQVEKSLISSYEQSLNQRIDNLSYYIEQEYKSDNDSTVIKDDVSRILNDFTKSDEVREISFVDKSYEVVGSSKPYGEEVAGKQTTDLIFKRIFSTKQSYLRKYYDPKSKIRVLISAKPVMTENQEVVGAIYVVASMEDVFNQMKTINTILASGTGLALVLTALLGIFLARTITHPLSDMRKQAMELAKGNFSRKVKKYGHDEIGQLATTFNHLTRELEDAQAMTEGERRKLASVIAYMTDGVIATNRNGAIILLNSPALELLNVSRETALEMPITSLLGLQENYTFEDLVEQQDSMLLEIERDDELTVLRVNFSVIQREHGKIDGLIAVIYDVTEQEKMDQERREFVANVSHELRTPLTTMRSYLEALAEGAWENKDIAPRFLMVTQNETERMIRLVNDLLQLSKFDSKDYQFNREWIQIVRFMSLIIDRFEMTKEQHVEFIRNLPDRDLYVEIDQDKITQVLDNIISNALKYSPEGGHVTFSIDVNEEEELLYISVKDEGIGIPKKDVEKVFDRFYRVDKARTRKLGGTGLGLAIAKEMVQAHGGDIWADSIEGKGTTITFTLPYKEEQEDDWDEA
POLO-like kinase 1 (Plk1) enzyme, sequence (P53350 whole entry, species assumed): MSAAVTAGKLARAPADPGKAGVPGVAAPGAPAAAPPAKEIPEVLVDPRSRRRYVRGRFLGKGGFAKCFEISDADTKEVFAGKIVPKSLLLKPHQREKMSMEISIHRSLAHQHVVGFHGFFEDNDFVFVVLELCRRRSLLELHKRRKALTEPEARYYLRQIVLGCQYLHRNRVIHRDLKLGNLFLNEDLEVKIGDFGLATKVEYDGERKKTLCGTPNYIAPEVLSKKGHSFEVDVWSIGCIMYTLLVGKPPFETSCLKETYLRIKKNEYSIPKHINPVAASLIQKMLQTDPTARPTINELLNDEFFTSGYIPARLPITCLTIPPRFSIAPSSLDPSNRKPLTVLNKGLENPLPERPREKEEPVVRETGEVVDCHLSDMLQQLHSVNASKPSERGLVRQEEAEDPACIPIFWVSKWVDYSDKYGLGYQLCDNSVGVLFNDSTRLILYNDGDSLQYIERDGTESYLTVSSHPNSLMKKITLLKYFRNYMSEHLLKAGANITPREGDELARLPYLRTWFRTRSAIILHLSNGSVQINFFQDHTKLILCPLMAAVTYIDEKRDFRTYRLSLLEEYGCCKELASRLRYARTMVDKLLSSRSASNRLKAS

Row | SMILES | inhibition of Bacillus subtilis YycG (comparative experiments) (Bacillus subtilis YycG) | other results
1 | CCCCCCC(C)/C=C(C)/C=C/C(=O)NC1CC2(OC1O)C1OC1C(O)C1OC12 (stereo not drawn) [Aranorosinol A] | – | inhibition of Plk1 enzyme [1]: 118 µM
2 | CCCCCCC(C)/C=C(C)/C=C/C(=O)N[C@H]1CC2(O[C@H]1O)[C@@H]1O[C@@H]1C(O)(CC(C)=O)[C@@H]1O[C@@H]12 (stereo partly drawn) [Aranorosinol B] | – | IC50 (Bacillus subtilis YycG; YycG from Bacillus subtilis, read-out: IC50, inhibition of YycG): 223 µM; IC50 [2]: 211 µM
3 | NCC[C@H](O)C(=O)N[C@@H]1C[C@H](N)[C@@H](O[C@H]2O[C@H](CN)[C@@H](O)[C@H](O)[C@H]2O)[C@H](O)[C@H]1O[C@H]1O[C@H](CO)[C@@H](O)[C@H](N)[C@H]1O [amikacin] | negligible inhibition | –
4 | Cc1nnc(SCC2=C(C(=O)O)N3C(=O)[C@@H](NC(=O)Cn4cnnn4)[C@H]3SC2)s1 [cefazolin] | negligible inhibition | –
5 | CC[C@H]1OC(=O)[C@H](C)[C@@H](O[C@H]2C[C@@](C)(OC)[C@@H](O)[C@H](C)O2)[C@H](C)[C@@H](O[C@@H]2O[C@H](C)C[C@H](N(C)C)[C@H]2O)[C@](C)(O)C[C@@H](C)C(=O)[C@H](C)[C@@H](O)[C@]1(C)O [erythromycin] | negligible inhibition | –
